{"source": "patent US7001587B2", "about": "“Measurement of protein synthesis rates in humans and experimental systems by use of isotopically labeled water” (The Regents of the University of California, priority 2001, dated 2006)", "key": {"[1]": {"test": "In vitro ^2H label exchange / label stability studies", "type": "physicochemical", "conditions": "acid-hydrolysis conditions used for proteins (6N HCl)"}, "human subjects": {"tested_on": "human subjects", "test": "Tolerability of daily oral ^2H2O in human subjects", "type": "in vivo", "conditions": "human subjects (healthy and HIV/AIDS) drinking 50–100 ml daily for 10–12 weeks"}, "rats": {"tested_on": "rats", "test": "Tolerability of 4% ^2H2O drinking water in rats", "type": "in vivo", "conditions": "rats given 4% ^2H2O as drinking water"}, "[2]": {"tested_on": "humans and experimental animals", "test": "Long-term maintenance of high body water ^2H2O enrichment, toxicity", "type": "in vivo", "conditions": "1–5% of total body water labeled, weeks or months, >100 people and experimental animals", "source_text": "Relatively high body water enrichments of ^2H2O (e.g., 1–5% of the total body water is labeled) have been achieved using the techniques of the invention. […] This finding in a large number of human subjects (>100 people) is contrary to previous concerns about vestibular toxicities at high doses of ^2H2O. Applicants have discovered that as long as rapid changes in body water enrichment are prevented (e.g., by initial administration in small, divided doses), high body water enrichments of ^2H2O can be maintained with no toxicities. Previous dosing of ^2H2O in humans, for other purposes (e.g., measurement of fatty acid or cholesterol synthesis or gluconeogenesis) have typically used lower doses and achieved lower body water enrichment. The low expense of commercially available ^2H2O allows long-term maintenance of enrichments in the 1–5% range at relatively low expense (e.g., lower cost for 2 months labeling at 2% ^2H2O enrichment, and thus 7–8% enrichment in the alanine precursor pool (FIGS. 2A–B), than for 12 hours labeling of ^2H-leucine at 10% free leucine enrichment, and thus 7–8% enrichment in leucine precursor pool for that period)."}, "[3]": {"conditions": "rat, in vivo", "excerpt": "The ^2H2O labeling protocol consisted of an initial intraperitoneal (ip) injection of 99.9% ^2H2O, to achieve ca. 2.5% body water enrichment (assuming total body water to be 60% of body weight) followed by administration of 4% ^2H2O in drinking water. For labeling of rats in utero, 4% drinking water was started while the male and female adult rats were housed together for mating (i.e. before pregnancy) and the 4% ^2H2O drinking water was continued through the pregnancy and post-delivery period.\nThe ^2H2O enrichment of body water was measured by a GC/MS technique that we have described elsewhere (Neese et al., Analytic Biochem 298(2):189–95, 2001). Briefly, the hydrogen atoms from water (10 μL) were chemically transferred to acetylene by reaction with calcium carbide in a sealed vial. Acetylene gas was then derivatized by injection into another sealed vial containing 0.5 ml Br2 (0.1 mM) dissolved in CCl4, followed by quenching of remaining Br2 with cyclohexene. The resulting tetrabromoethane was dissolved in CCl4 and was analyzed by GC/MS, using a DB-225 column (30 m, J&W, Folsom, Calif.) at 180° C., with methane chemical ionization (C.I.). The ions at m/z 265 and 266 were analyzed using selected ion monitoring. These ions represent the M0 and M1 mass isotopomers of the C2H2Br3^+ fragment (^79Br^79Br^81Br isotopologue). The enrichments of ^2H2O in water samples were calculated by comparison to standard curves generated by mixing 100% ^2H2O with unlabeled H2O in known proportions (Neese et al., Analytic Biochem 298(2):189–95, 2001)."}, "[4]": {"conditions": "cited from earlier work"}, "bone collagen": {"tested_on": "bone collagen", "test": "Bone collagen synthesis rate (ks) in ovariectomized rats by ^2H2O labeling", "type": "in vivo", "conditions": "ovariectomized female rats, pellet 200 μg", "experimental": "The fractional synthesis or replacement rate (ks) of proteins or peptides may be determined by application of the continuous labeling, precursor-product formula: [formula] where A^∞ represents the asymptotic or plateau value of the amino acid I.E. (isotopic enrichment) possible under the labeling conditions present and AA(protein)t represents the measured protein-bound amino acid at time t.\nOvariectomy was performed in adult female rodents as described (9). After allowing 3 weeks for recovery from surgery, the rats received either estradiol by subcutaneous pellet (200 μg) or sham placement of pellet. ^2H2O labeling was initiated at the time of pellet placement and continued for 2 weeks, at which time the animals were sacrificed and bone was collected.\nRats were killed every 1–2 weeks during a 10-week period of ^2H2O administration. The rear left femur was collected and was dissected free of soft tissue. Bone marrow and trabecular bone were removed using a needle with sharp cutting surface (ref: Bone 2000). After washing 3 times with water, the bone was splintered and powdered under liquid N2 in a Spex mill and defatted with chloroform:methanol (1:1, v:v). After drying, the powdered bone was subjected to acid hydrolysis in 6N HCl (110° C., 24 hr). The free AA were dried under N2 gas and derivatized for analysis by gas chromatography/mass spectrometry (GC/MS). […]"}}, "note": "Where two headings read alike, the source gives them in different places."}
{"compound": "[2H]C(C)(N)C(=O)O", "note": "(stereo not drawn) [^2H1-labeled alanine]", "values": [{"measurement": "loss of ^2H-label", "setting": "[1]", "result": "no loss of ^2H-label was observed"}]}
{"compound": "[2H]C([2H])(N)C(=O)O", "note": "[^2H2-labeled glycine]", "values": [{"measurement": "loss of ^2H-label", "setting": "[1]", "result": "no loss of ^2H-label was observed"}]}
{"compound": "[2H]O[2H]", "note": "[^2H2O]", "values": [{"measurement": "adverse effects or toxicities", "setting": "human subjects", "result": "No adverse effects or toxicities were observed"}, {"measurement": "growth and signs of toxicity", "setting": "rats", "result": "grew normally and exhibited no signs of toxicity"}, {"measurement": "toxicity at maintained body water enrichment", "setting": "[2]", "result": "without any evidence of toxicity"}, {"measurement": "Body ^2H2O Enrichment (%)", "setting": "[3]", "result": 2.6, "unit": "%"}, {"measurement": "measured ^2H2O enrichment in maternal blood", "setting": "[3]", "result": 2.4, "unit": "%"}, {"measurement": "half-life", "setting": "[4]; turnover of body water pool", "result": "14400 to 20200", "unit": "min"}]}
{"compound": "C[C@]12CC[C@@H]3c4ccc(O)cc4CC[C@H]3[C@@H]1CC[C@@H]2O", "note": "[estrogen, estradiol]", "values": [{"measurement": "ks of bone collagen", "setting": "bone collagen; 2 weeks ^2H2O labeling", "result": 0.008, "unit": "day⁻¹"}, {"measurement": "decrease in ks of bone collagen", "setting": "bone collagen; 2 weeks, compared to vehicle-implanted ovariectomized rats", "result": "35–40%"}]}
{"compound": "^2H-glucose", "values": [{"measurement": "half-life", "setting": "[4]; in vivo", "result": 20, "unit": "min"}]}
{"compound": "^2H-leucine", "values": [{"measurement": "half-life", "setting": "[4]; in vivo", "result": "< 30", "unit": "min"}]}
